The target of series [1] is T1, Alpha-1B adrenergic receptor (Rattus norvegicus) (UniProt P15823).
T1 sequence (whole entry): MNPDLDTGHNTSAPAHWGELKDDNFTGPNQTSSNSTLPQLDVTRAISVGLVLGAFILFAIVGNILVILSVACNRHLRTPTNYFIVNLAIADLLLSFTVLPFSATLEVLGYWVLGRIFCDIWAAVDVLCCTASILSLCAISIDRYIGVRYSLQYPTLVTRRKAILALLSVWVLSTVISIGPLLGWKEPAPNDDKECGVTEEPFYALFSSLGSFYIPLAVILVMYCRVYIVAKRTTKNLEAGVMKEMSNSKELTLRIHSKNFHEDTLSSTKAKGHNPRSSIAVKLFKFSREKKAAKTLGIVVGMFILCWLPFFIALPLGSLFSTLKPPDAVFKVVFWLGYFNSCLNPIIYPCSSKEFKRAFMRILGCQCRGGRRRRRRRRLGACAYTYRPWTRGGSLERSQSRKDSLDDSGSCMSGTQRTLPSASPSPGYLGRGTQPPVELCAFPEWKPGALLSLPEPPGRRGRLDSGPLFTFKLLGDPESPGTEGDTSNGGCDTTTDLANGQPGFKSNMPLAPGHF
In words: Antagonist activity at alpha-1b adrenergic receptor in Wistar rat spleen assessed as inhibition of (-)-phenylephrine-induced contraction. It is filed as tissue-based.

Series [2] deals with T2, Alpha-1D adrenergic receptor (Rattus norvegicus) (UniProt P23944).
T2 sequence (whole entry): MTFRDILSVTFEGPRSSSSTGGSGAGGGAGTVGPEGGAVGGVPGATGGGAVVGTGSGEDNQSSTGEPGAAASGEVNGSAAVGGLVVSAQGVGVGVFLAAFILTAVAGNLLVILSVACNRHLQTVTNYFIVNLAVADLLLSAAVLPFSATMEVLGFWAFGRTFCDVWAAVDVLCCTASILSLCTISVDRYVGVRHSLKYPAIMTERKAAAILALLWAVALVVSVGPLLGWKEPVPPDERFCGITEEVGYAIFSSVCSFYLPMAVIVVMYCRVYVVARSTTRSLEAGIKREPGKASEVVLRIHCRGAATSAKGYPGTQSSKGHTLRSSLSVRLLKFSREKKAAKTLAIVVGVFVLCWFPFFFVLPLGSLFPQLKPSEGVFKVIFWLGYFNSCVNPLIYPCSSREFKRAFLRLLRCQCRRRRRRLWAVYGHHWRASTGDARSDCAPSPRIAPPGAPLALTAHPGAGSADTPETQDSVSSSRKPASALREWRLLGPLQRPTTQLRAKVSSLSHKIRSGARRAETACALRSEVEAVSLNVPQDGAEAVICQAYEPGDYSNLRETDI
The series is described as follows: Antagonist activity at alpha-1d adrenergic receptor in Wistar rat thoracic aorta assessed as inhibition of (-)-noradrenaline-induced contractions.

Series [3] concerns the target T3, 5-hydroxytryptamine receptor 1A (Homo sapiens) (UniProt P08908).
T3 sequence (whole entry): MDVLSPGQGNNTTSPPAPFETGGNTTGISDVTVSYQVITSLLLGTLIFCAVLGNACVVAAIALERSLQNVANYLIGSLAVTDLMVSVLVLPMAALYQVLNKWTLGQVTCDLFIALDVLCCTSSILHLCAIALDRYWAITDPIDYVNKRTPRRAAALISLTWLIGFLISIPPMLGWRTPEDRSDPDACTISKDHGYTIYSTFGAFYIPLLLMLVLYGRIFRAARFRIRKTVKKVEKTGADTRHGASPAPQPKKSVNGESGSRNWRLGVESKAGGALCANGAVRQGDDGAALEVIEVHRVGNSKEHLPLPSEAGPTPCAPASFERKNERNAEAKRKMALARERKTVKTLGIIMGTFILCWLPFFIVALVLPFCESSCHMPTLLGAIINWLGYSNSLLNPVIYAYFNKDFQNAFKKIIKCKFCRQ
The series is described as follows: Agonist activity at human recombinant 5HT1A receptor expressed in human HeLa cells assessed as increase in [35S]GTPgammaS binding incubated for 20 mins by liquid scintillation counter relative to control. It is filed as functional, cell-based. A general note: GTPγS resists hydrolysis and so accumulates on activated G proteins.

Series [4] has as its system SH-SY5Y. The series is described as follows: Cytotoxicity against human SH-SY5Y cells assessed as reduction in cell viability incubated for 24 hrs by MTT assay. It is filed as cell-based. A general note: Tetrazolium assays rely on reduction of a dye to a coloured formazan, in cell work by metabolically active cells.
Series [5] concerns SH-SY5Y. In words: Neuroprotective activity against H2O2-induced cell death in human SH-SY5Y cells at 1 uM incubated for 24 hrs by MTT assay. It is filed as functional.
Series [6] has as its system SH-SY5Y. In words: Neuroprotective activity against H2O2-induced cell death in human SH-SY5Y cells at 0.1 uM incubated for 24 hrs by MTT assay. It is filed as functional.
The subject of series [7] is SH-SY5Y. In words: Neuroprotective activity against oligomycin A-induced cell death in human SH-SY5Y cells at 0.1 uM incubated for 24 hrs by MTT assay. It is filed as functional.
Series [8] relates to SH-SY5Y. In words: Neuroprotective activity against rotenone-induced cell death in human SH-SY5Y cells at 0.1 uM incubated for 24 hrs by MTT assay. It is filed as functional.
Series [9] is described as follows: Tmax in Sprague-Dawley rat plasma at 10 mg/kg, po measured upto 480 mins by LC/MS-MS analysis. It is filed as ADME, organism-based.
Series [10] is described as follows: AUC (0 to t) in Sprague-Dawley rat plasma at 10 mg/kg, po measured upto 480 mins by LC/MS-MS analysis. The settings on record: in vivo, 8 h. It is filed as ADME, organism-based.
Series [11] in a line: AUC (0 to infinity) in Sprague-Dawley rat plasma at 10 mg/kg, po measured upto 480 mins by LC/MS-MS analysis. It is filed as ADME, organism-based. Set-up: dose 10 mg/kg, route oral, time infinity. As to conditions: in vivo, 8 h.
Series [12] in a line: Half life in Sprague-Dawley rat plasma at 10 mg/kg, po measured upto 480 mins by LC/MS-MS analysis. It is filed as ADME, organism-based.
A short description of series [13]: Ratio of drug level in brain to plasma in Sprague-Dawley rat at 10 mg/kg, po measured upto 480 mins by LC/MS-MS analysis. It is filed as ADME, organism-based. As to conditions: read-out: BPR.
A short description of series [14]: AUC (0 to t) in Sprague-Dawley rat brain at 10 mg/kg, po measured upto 480 mins by LC/MS-MS analysis. It is filed as ADME, organism-based. The settings on record: in vivo, 8 h.
Series [15] in a line: Half life in Sprague-Dawley rat brain at 10 mg/kg, po measured after 15 to 45 mins by LC/MS-MS analysis. It is filed as ADME, organism-based.
Series [16] in a line: Half life in Sprague-Dawley rat brain at 10 mg/kg, po measured after 45 to 480 mins by LC/MS-MS analysis. It is filed as ADME, organism-based.
The test system of series [17] is Rattus norvegicus. The series is described as follows: Anxiolytic activity at Sprague-Dawley rat assessed as increase in time spent in open arm at 10 mg/kg, po by EPM test relative to control. It is filed as functional.
The subject of series [18] is Rattus norvegicus. The series is described as follows: Anxiolytic activity at Sprague-Dawley rat assessed as increase in time spent in open arm at 20 mg/kg, po by EPM test relative to control. It is filed as functional.
Series [19] has as its system Rattus norvegicus. In words: Effect on locomotory activity in Sprague-Dawley rat assessed as distance travelled at 10 mg/kg, po by open field test. It is filed as functional, organism-based.
The nature of series [20]: Ratio of compound t1/2 to 8-OH-DPAT t1/2 in Sprague-Dawley rat plasma at 10 mg/kg, po measured upto 480 mins by LC/MS-MS analysis. It is filed as ADME, organism-based. The settings on record: in vivo, 8 h.
For series [21], the system named is Rattus norvegicus. In words: Anxiolytic activity at Sprague-Dawley rat assessed as decrease in time spent in closed arm at 5 to 20 mg/kg, po by EPM test. It is filed as functional, organism-based.
A further series is filed under the species Homo sapiens. The series is described as follows: Selectivity ratio of pKi for human cloned 5HT-1AR transfected in HeLa cells to pKi for human cloned adrenoceptor alpha 1D expressed in CHO cell membrane. It is filed as cell-based.

Calls of active or inactive are those of the source. The calls are words filed in the database; no cut-off is given here.

For orientation: pKb means the negative decadic logarithm of the Kb, by convention in mol/L. One may read the Emax as the maximal effect, on the per cent scale that the assay sets. A word on the IC50: it is the midpoint of a concentration-inhibition curve. As a reminder, the Tmax is the time at which the peak concentration occurs. As usually defined, the half-life is how long it takes for the measured level to halve. A high value points to slow loss.

As to `COc1ccccc1OCCNCC[C@@H]1CO[C@H](C(c2ccccc2)c2ccccc2)O1` (relative stereo), the results for the pKb in series [1] and in [2] were 6.91 and 7.67, respectively. Besides, the Emax in [3] came to 82.1%.
For `COc1ccccc1OCCNCCOC(c1ccccc1)c1ccccc1` the same measures were 7.11, 7.75 and 77.3%.
For `c1ccc(OCCNCC2COC(c3ccccc3)(c3ccccc3)OC2)cc1` the same measures were 6.76, 6.76 and 88.7%.
The like results for `COc1ccccc1OCCNCC[C@H]1CO[C@H](C(c2ccccc2)c2ccccc2)O1` (relative stereo) were, in that order, 7.13, 7.25 and 53%.
Consider `OCC(CNCCOc1ccccc1)OC(c1ccccc1)c1ccccc1` (configuration not stated), for which the figures for the pKb in [1] and in [2] were 6.98 and 7.07, respectively. In addition, the Emax in [3] came out at 69.5%.
Turning to `COc1ccccc1OCCNCCC1COC(c2ccccc2)(c2ccccc2)O1` (configuration not stated), the pKb in series [1] amounted to 6.93; in series [2], 8.17. For the same molecule, the Emax in series [3] worked out at 22.1%.
Consider `COc1ccccc1OCCNCC1COC(c2ccccc2)(c2ccccc2)OC1.O=C(O)C(=O)O`, for which the pKb in [1] amounted to 6.8; in [2], 7.06. In addition, the Emax in series [3] worked out at 91.6%. The IC50 in the series with SH-SY5Y [4] was determined as 31.2 µM. Also, the Activity in the series on SH-SY5Y [5] is on record as 79%; in the series on SH-SY5Y [6], 89%; in the series with SH-SY5Y [7] it was 69%; in the series with SH-SY5Y [8], 63%; with Rattus norvegicus [17], 20%; in the series with Rattus norvegicus [18], 18%. The Tmax in series [9] is 0.5 h. Further, the AUCt is 17.4 nmol·min/g in series [10] and 7167.6 nmol·min/g in series [14]. Also, in series [11], the AUC amounted to 18.1 nmol·min/g. Besides, the half-life in series [12] is 1.71 h; in series [15], 6.2 min; in series [16], 2.37 h. The Kp at 8 h in series [13] was 420. The outcome in the series on Rattus norvegicus [19] was inactive. The Ratio in series [20] is given as 3. Also, the inhibition entry with Rattus norvegicus [21] is “Active”. In addition, the Ratio pKi in the series filed under Homo sapiens is 16.
As to `c1ccc(OCCNCC2CCOC(c3ccccc3)(c3ccccc3)O2)cc1` (configuration not stated), the pKb in series [1] is 6.97; in series [2], 7.55. In [3], the maximal response (Emax) is 79.5%.
Take `COc1ccccc1OCCNCC1CCOC(c2ccccc2)(c2ccccc2)O1` (configuration not stated): the pKb in series [1] is 7.19; in [2] it was 8.68. Moreover, in series [3], the Emax is 65.9%.
The like results for `COc1ccccc1OCCNCC(CO)OC(c1ccccc1)c1ccccc1` (configuration not stated) were, in that order, 7.02, 7.46 and 90.2%.
For `c1ccc(OCCNCCOC(c2ccccc2)c2ccccc2)cc1` the same measures were 7.01, 7.73 and 78.9%.
